Experimental data as given in PubChem BioAssay AID712 (Emory University Molecular Libraries Screening Center, 2007).
Active and inactive are the calls of the source. How the calls were made is not given here.

Each molecule was assayed against Heat shock protein HSP 90-alpha (Homo sapiens) (UniProt P07900) (assay: tumor Hsp90 inhibitor potency, dose response (AID 712)). Conditions: Hsp90 inhibition assay.
`Cn1c(=O)c2c(nc(Oc3ccc4c(c3)OCO4)n2Cc2ccc(Cl)cc2)n(C)c1=O` was tested, and the IC50 was > 50 µM (inactive). In the case of `c1ccc2sc(SCc3ccc(-c4nnco4)cc3)nc2c1`, the IC50 is reported as > 50 µM (inactive). In the case of `CC1(C)CC(=O)c2c(O)cc(O)cc2O1`, the IC50 is reported as > 50 µM (inactive). For `COc1ccc(-n2nc3c(c2NC(=O)c2ccc(Br)cc2)CS(=O)C3)cc1` (stereo unspecified), the IC50 was > 50 µM (inactive). `O=C(NCc1cccnc1)C1c2ccccc2C(=O)N1Cc1ccco1` (stereo unspecified) was tested, and the IC50 was > 50 µM (inactive). In the case of `COc1cc(N)c2nccc(Cl)c2c1`, the IC50 is reported as > 50 µM (inactive). In the case of `CCCc1cc2c(cc1NS(=O)(=O)c1ccc(CCNC(C)=O)cc1)OCO2`, the IC50 is reported as > 50 µM (inactive). In the case of `COc1cc(N)c2nccc(OCc3ccccc3)c2c1`, the IC50 is reported as > 50 µM (inactive). `Oc1c(Cl)cc(Cl)c2cccnc12` was tested, and the IC50 was > 50 µM (inactive). `O=C1c2cccnc2C(=O)N1Cc1ccc2c(c1)OCO2` was tested, and the IC50 was > 50 µM (inactive). With `CCOC(=O)N1CCC(NC(=O)CSCc2nc(-c3sccc3C)oc2C)CC1` the IC50 was > 50 µM (inactive). With `O=C(Nc1nc(-c2ccc3c(c2)OCO3)cs1)C1COc2ccccc2O1` (stereo unspecified) the IC50 was > 50 µM (inactive). With `CC(=O)c1ccc(NC(=O)CSc2nnc(Cc3cccn3C)n2-c2ccc(F)cc2)cc1` the IC50 was > 50 µM (inactive). In the case of `O=C(c1sc2ccccc2c1Cl)N(Cc1ccco1)C1CCS(=O)(=O)C1` (stereo unspecified), the IC50 is reported as > 50 µM (inactive). In the case of `CC(=O)CCc1c(C)[nH]c2ccccc2c1=O`, the IC50 is reported as > 50 µM (inactive). For `Nc1cc(N)nc(SCCOc2ccccc2F)n1`, the IC50 was > 50 µM (inactive). `CCOC(=O)c1c(C)[nH]c2ccc(O)cc12` was tested, and the IC50 was > 50 µM (inactive). `O=C(NCCN1CCOCC1)NC1(C(F)(F)F)Oc2ccc(Cl)cc2O1` (stereo unspecified) was tested, and the IC50 was > 50 µM (inactive). For `Nc1cccc2cnccc12`, the IC50 was > 50 µM (inactive). With `CCn1nnc(NC(=O)COc2cc(C)ccc2C(C)C)n1` the IC50 was > 50 µM (inactive). For `Nc1ccc(NS(=O)(=O)c2cc(Cl)ccc2Cl)cc1-c1ccccc1O`, the IC50 was > 50 µM (inactive). `Nc1ccc2[nH]ccc2c1` was tested, and the IC50 was > 50 µM (inactive). With `O=S(=O)(NC1CCc2ccccc21)c1ccc(S(=O)(=O)N2CCCC2)cc1` (stereo unspecified) the IC50 was > 50 µM (inactive). With `CC(=O)c1cccc(NC(=O)CSc2nnc(-c3ccc(S(=O)(=O)N4CCCC4)cc3)o2)c1` the IC50 was > 50 µM (inactive). `Nc1cc(N)c2cccnc2c1O` showed an IC50 of 3.13 µM. For `COc1ccc(S(=O)(=O)N(C)CC(=O)N2CCC(C(N)=O)CC2)cc1Cl`, the IC50 was > 50 µM (inactive). `Cc1noc(C(=O)Nc2ccc3c(c2)OCO3)c1Cl` gave an IC50 of 22.5 µM. In the case of `O=S(=O)(Nc1cc(O)cc2cccnc12)c1ccc(F)cc1`, the IC50 is reported as 11.2 µM. With `CCOC(=O)NC1(NCc2ccccc2)Oc2ccccc2O1` the IC50 was “inactive”. For `Nc1cc(N)nc(SCC(=O)Nc2nncs2)n1`, the IC50 was > 50 µM (inactive). In the case of `Nc1cccc2cc(O)ccc12`, the IC50 is reported as > 50 µM (inactive). In the case of `CC(=O)Oc1cc2oc(=O)cc(C)c2cc1OC(C)=O`, the IC50 is reported as > 50 µM (inactive). In the case of `Cc1nc(SCC(=O)c2ccc(O)cc2O)n[nH]1`, the IC50 is reported as > 50 µM (inactive). `Cc1ccc(S(=O)(=O)Nc2ccc(N)c(-c3ccccc3O)c2)cc1` was tested, and the IC50 was > 50 µM (inactive). `CC(=O)Oc1cc2c(C(=O)NCCCN3CCOCC3)c(C)oc2c2ccccc12` was tested, and the IC50 was 4.65 µM. For `O=C1c2ccccc2-c2onc3ccc(NCc4ccco4)c1c23`, the IC50 was under 1.56 µM. `Nc1ccc(Nc2nc3ccccc3s2)c(O)c1` was tested, and the IC50 was > 50 µM (inactive). With `N#Cc1ccc(CSc2nnc(Nc3ccccc3)s2)cc1` the IC50 was > 50 µM (inactive). For `O=[N+]([O-])c1ccc(O)c2cccnc12`, the IC50 was > 50 µM (inactive). `COc1cccc(C(=O)NCC(=O)n2nc(C)cc2C)c1` was tested, and the IC50 was > 50 µM (inactive). With `O=S(=O)(Nc1ccc(Cl)cc1O)c1ccccc1` the IC50 was > 50 µM (inactive). In the case of `CCOC(=O)NC1(Nc2ccc(Cl)cn2)Oc2ccccc2O1`, the IC50 is reported as > 50 µM (inactive). `O=C1C(c2ccc3ccccc3n2)=C(O)c2ccccc21` was tested, and the IC50 was > 50 µM (inactive). In the case of `Nc1cc2c(c(O)c1O)C(=O)c1ccccc1C2=O`, the IC50 is reported as under 1.56 µM. `NCCCCCNc1cc(O)cc2cccnc12` gave an IC50 of under 1.56 µM. `N#Cc1cc(S(=O)(=O)Nc2cc(OCc3ccccc3)cc3cccnc23)ccc1F` was tested, and the IC50 was > 50 µM (inactive). With `COc1ccc(C2=NO[C@@H]3C(=O)N(c4c(C)cccc4C)C(=O)[C@H]23)cc1OC` the IC50 was 25.4 µM. `Nc1cc(=O)[nH]c(SCC(=O)c2ccc3c(c2)OCO3)n1` was tested, and the IC50 was > 50 µM (inactive). In the case of `CCc1cc(C(=O)Cc2ccc(F)cc2)c(O)cc1O`, the IC50 is reported as > 50 µM (inactive). For `Cc1ccc(OC(=O)c2ccc(N)cc2O)cc1`, the IC50 was > 50 µM (inactive). For `Nc1ccc(NS(=O)(=O)c2ccccc2N)cc1-c1ccccc1O`, the IC50 was > 50 µM (inactive). `Cc1ccc(NC(=O)CC2SCCNC2=O)cc1Cl` (stereo unspecified) was tested, and the IC50 was > 50 µM (inactive). For `CC(Cc1ccc(O)c(O)c1)C(C)Cc1ccc(O)c(O)c1` (stereo unspecified), the IC50 was 2.62 µM. Work on `Cc1c(N=c2c(=O)c3ccccc3c2=O)c(=O)n(-c2ccccc2)n1C` yielded an IC50 of 20.6 µM. For `COc1cc(NCC(O)CN(CC(C)C)CC(C)C)c2nc(C)ccc2c1` (stereo unspecified), the IC50 was > 50 µM (inactive). With `C[C@H]1CCC[C@H](O)CCCCCc2cc(O)cc(O)c2C(=O)O1` the IC50 was 2.65 µM. With `CCn1cc(C(=O)NCc2ccccn2)c(=O)c2cc(S(=O)(=O)N3CCCCC3)ccc21` the IC50 was 17.4 µM. In the case of `O=[N+]([O-])c1ccc(NS(=O)(=O)c2ccccc2)c(O)c1`, the IC50 is reported as > 50 µM (inactive). `NCc1cc(S(=O)(=O)Nc2cc(O)cc3cccnc23)ccc1F` was tested, and the IC50 was > 50 µM (inactive). `CC(C)NCCCC(C)Nc1cc(O)cc2cccnc12` (stereo unspecified) was tested, and the IC50 was 1.56 µM. In the case of `COc1ccc(NS(=O)(=O)c2ccccc2)c(OC)c1`, the IC50 is reported as > 50 µM (inactive).
